Measurements reported in patent US5001228A, “Bis-alkylamide azo polymerization initiators” (Wako Pure Chemical Industries, Ltd., priority 1988, dated 1991).

Columns and labels:
Solubility (15° C.) = type: physicochemical; conditions: for Solubility in DMF: dimethylformamide (DMF); for solubility: water
[1] = Decomposition rate constant; type: physicochemical; conditions: 80° C.

| SMILES | Solubility in acetone (Solubility (15° C.)) [%] | Solubility in DMF (Solubility (15° C.)) [%] | Solubility in methanol (Solubility (15° C.)) [%] | Solubility in toluene (Solubility (15° C.)) [%] | solubility (Solubility (15° C.)) [µg/mL] | Decomposition rate constant [1] |
| --- | --- | --- | --- | --- | --- | --- |
| CC(C)(N=NC(C)(C)C(=O)NCc1ccc(Cl)cc1)C(=O)NCc1ccc(Cl)cc1 [Compound (3), 2,2'-azobis[N-(p-chlorobenzyl)-2-methylpropionamide]] | ≥ 10 | ≥ 10 | ~5 | ≤ 1 | ≤ 10000 |  |
| C=CCNC(=O)C(C)(C)N=NC(C)(C)C(=O)NCC=C [Compound (2), 2,2'-azobis[N-(2-propenyl)-2-methylpropionamide]] | ≥ 10 | ≥ 10 | ≥ 10 | ≥ 10 | ≤ 10000 | 2.80 × 10^-6 sec.^-1 |
| CC(C)(N=NC(C)(C)C(=O)NCc1cccnc1)C(=O)NCc1cccnc1 [Compound (4), 2,2'-azobis[N-[(pyridin-3-yl)methyl]-2-methylpropionamide]·2H2 O] | 3 | 1.5 | ≥ 10 |  | ≤ 10000 |  |
| CC(C)(N=NC(C)(C)C(=O)NCc1ccncc1)C(=O)NCc1ccncc1 [Compound (5), 2,2'-azobis[N-[(pyridin-4-yl)methyl]-2-methylpropionamide]·2H2 O] | ≤ 1 | 3 | ~9 |  | ≤ 10000 |  |
| CC(C)(N=NC(C)(C)C(=O)NCC1CCNCC1)C(=O)NCC1CCNCC1 [Compound (6), 2,2'-azobis[N-[(piperidin-4-yl)methyl]2-methylpropionamide]·2HCl] | ≤ 1 | ≤ 1 | ≥ 10 | ≤ 1 | ≥ 100000 |  |
| CC(C)(N=NC(C)(C)C(=O)NCCN1CCNCC1)C(=O)NCCN1CCNCC1 [Compound (7)] | ≤ 1 | 1.5 | ≥ 10 |  | ≥ 100000 |  |
